Test system: SARS-CoV-2
Assay: microbe, parasite or virus in culture
Details: Severe acute respiratory syndrome coronavirus 2, Vero C1008, 48 h

| Structure (SMILES) | IC50 [µM] | IC50 (read-out: pIC50 (converted)) [µM] |
| --- | --- | --- |
| COc1cccc(CCc2ccccc2OCC(CN(C)C)OC(=O)CCC(=O)O)c1 (stereo not drawn) [SARPOGRELATE] | > 20 | > 20 |
| C[C@@H](c1ccc2nccn2c1)n1nnc2ncc(-c3cnn(C)c3)nc21 [SAVOLITINIB] | > 20 | > 20 |
| N#C[C@@H]1C[C@@H]2C[C@@H]2N1C(=O)[C@@H](N)C12CC3CC(CC(O)(C3)C1)C2 [SAXAGLIPTIN ANHYDROUS] | > 20 | > 20 |
| C[S+]([O-])c1ccc(-c2nc(-c3ccc(F)cc3)c(-c3ccncc3)[nH]2)cc1 (stereo not drawn) [SB-203580] | > 20 | > 20 |
| Cc1nc(C(=O)N2CCCC[C@H]2CNC(=O)c2cccc3occc23)c(-c2ccc(F)cc2)s1 [SB-649868] | > 20 | > 20 |
| CCCc1c(OCCCOc2ccc(C(C)=O)c(OC)c2CCC)ccc2c1OC(C(=O)O)CC2 (stereo not drawn) [SC-41390] | > 20 | > 20 |
| CN1CCc2cc(Cl)c(O)cc2[C@@H](c2ccccc2)C1 [SCH-23390] | > 20 | > 20 |
| CC(=O)N1CCC(=C2c3ccc(Cl)cc3CCc3cccnc32)CC1 [SCH-37370] | > 20 | > 20 |
| Cn1cc(-c2cnn3c(N)c(Br)c([C@@H]4CCCNC4)nc23)cn1 [SCH-900776] | > 20 | > 20 |
| CN1[C@@H]2C[C@@H](OC(=O)[C@H](CO)c3ccccc3)C[C@H]1[C@@H]1O[C@@H]12 [SCOPOLAMINE] | > 20 | > 20 |
| COc1cc2ccc(=O)oc2cc1O [SCOPOLETIN] | > 20 | > 20 |
| COc1cc2c(cc1O)[C@@H]1Cc3ccc(OC)c(O)c3CN1CC2 [SCOULERINE] | > 20 | > 20 |
| O=C1c2cc(Cl)ccc2OC2CCON12 (stereo not drawn) [SECLAZONE] | > 20 | > 20 |
| Cc1ncc([N+](=O)[O-])n1CC(C)O (stereo not drawn) [SECNIDAZOLE] | > 20 | > 20 |
| C=CCC1(C(C)CCC)C(=O)NC(=O)NC1=O (stereo not drawn) [SECOBARBITAL] | > 20 | > 20 |
| O=C1C=C2C=C[C@@H]3C[C@@]2(O1)[C@H]1CCCCN31 [SECURININE] | > 20 | > 20 |
| CCCC[C@](C)(CO)Nc1nc(N)nc2cc(F)cnc12 [SELGANTOLIMOD] | > 20 | > 20 |
| CC[C@H](CO)Nc1nc(NCc2ccccc2)c2ncn(C(C)C)c2n1 [SELICICLIB] | > 20 | > 20 |
| O=C(/C=C\n1cnc(-c2cc(C(F)(F)F)cc(C(F)(F)F)c2)n1)NNc1cnccn1 [SELINEXOR] | > 20 | > 20 |
| Cn1cnc2c(F)c(Nc3ccc(Br)cc3Cl)c(C(=O)NOCCO)cc21 [SELUMETINIB] | > 20 | > 20 |
| C=C1C/C(=C/C)C(=O)O[C@@H]2CCN3CC=C(COC(=O)[C@]1(C)O)[C@H]23 [SENECIPHYLLINE] | > 20 | > 20 |
| NC(=O)C(c1ccccc1)(c1ccc(F)cc1)c1ccc(F)cc1 [SENICAPOC] | > 20 | > 20 |
| C[C@H](O)C(=O)C1=Nc2c(nc(N)[nH]c2=O)NC1 [SEPIAPTERIN] | > 20 | > 20 |
| CC1=C(C)C(=O)C(C(CCCCCC(=O)O)c2ccccc2)=C(C)C1=O (stereo not drawn) [SERATRODAST] | > 20 | > 20 |
| NCCc1c[nH]c2ccc(O)cc12 [SEROTONIN] | > 20 | > 20 |

| Structure (SMILES) | IC50 [µM] | IC50 (read-out: pIC50 (converted)) [µM] |
| --- | --- | --- |
| Clc1ccc(C(Cn2ccnc2)OCc2csc3c(Cl)cccc23)c(Cl)c1 (stereo not drawn) [SERTACONAZOLE] | > 20 | > 20 |
| O=C1NCCN1CCN1CCC(c2cn(-c3ccc(F)cc3)c3ccc(Cl)cc23)CC1 [SERTINDOLE] | > 20 | > 20 |
| c1cc2c(cc1[C@H]1OC[C@H]3[C@@H]1CO[C@@H]3c1ccc3c(c1)OCO3)OCO2 [SESAMIN] | > 20 | > 20 |
| O=C(O)Cn1c2c(c3cc(F)ccc31)CN(C(=O)c1cccc3ccccc13)CC2 [SETIPIPRANT] | > 20 | > 20 |
| Cc1nc2n(c(=O)c1CCN1CCC(C(=O)c3ccc(F)cc3)CC1)CCS2 [SETOPERONE] | > 20 | > 20 |
| CC(C)[C@](O)(c1ccc2cc(OC(F)F)c(OC(F)F)cc2c1)c1c[nH]nn1 [SEVITERONEL] | > 20 | > 20 |
| O=C(O)C1=C[C@@H](O)[C@@H](O)[C@H](O)C1 [SHIKIMIC ACID] | > 20 | > 20 |
| CC(C)=CC[C@@H](O)C1=CC(=O)c2c(O)ccc(O)c2C1=O [SHIKONIN] | > 20 | > 20 |
| CC(C)CC(N(C)C)C1(c2ccc(Cl)cc2)CCC1 (stereo not drawn) [SIBUTRAMINE] | > 20 | > 20 |
| C[C@H](Cc1cc2c(c(C(N)=O)c1)N(CCCO)CC2)NCCOc1ccccc1OCC(F)(F)F [SILODOSIN] | > 20 | > 20 |
| COc1cc([C@H]2Oc3cc([C@H]4Oc5cc(O)cc(O)c5C(=O)[C@@H]4O)ccc3O[C@@H]2CO)ccc1O [SILYBIN A] | > 20 | > 20 |
| COc1cc([C@@H]2Oc3cc([C@H]4Oc5cc(O)cc(O)c5C(=O)[C@@H]4O)ccc3O[C@H]2CO)ccc1O [SILYBIN B] | > 20 | > 20 |
| CCC(C)(C)C(=O)O[C@H]1C[C@@H](C)C=C2C=C[C@H](C)[C@H](CC[C@@H]3C[C@@H](O)CC(=O)O3)[C@H]21 [SIMVASTATIN] | > 20 | > 20 |
| COc1cc(/C=C/C(=O)O)cc(OC)c1OC [SINAPIC ACID METHYL ETHER] | > 20 | > 20 |
| COC1=C[C@@H]2[C@@H]3Cc4ccc(OC)c(O)c4[C@]2(CCN3C)CC1=O [SINOMENINE] | > 20 | > 20 |
| CCc1cc(/C(C)=N/OCc2ccc(C3CCCCC3)c(C(F)(F)F)c2)ccc1CN1CC(C(=O)O)C1 [SIPONIMOD] | > 20 | > 20 |
| CO[C@H]1C[C@@H]2CC[C@@H](C)[C@@](O)(O2)C(=O)C(=O)N2CCCC[C@H]2C(=O)O[C@H]([C@H](C)C[C@@H]2CC[C@@H](O)[C@H](OC)C2)CC(=O)[C@H](C)/C=C(\C)[C@@H](O)[C@@H](OC)C(=O)[C@H](C)C[C@H](C)/C=C/C=C/C=C/1C [SIROLIMUS] | > 20 | > 20 |
| NCc1ccc2c(c1)nc(CN1C(=O)C3(CC3)c3ccc(F)cc31)n2CCCC(F)(F)F [SISUNATOVIR] | > 20 | > 20 |
| N[C@@H](CC(=O)N1CCn2c(nnc2C(F)(F)F)C1)Cc1cc(F)c(F)cc1F [SITAGLIPTIN] | > 20 | > 20 |
| Cc1cc2c(cc1CC(=O)c1sccc1S(=O)(=O)Nc1onc(C)c1Cl)OCO2 [SITAXENTAN] | > 20 | > 20 |
| COCCNCc1ccc(-c2cc3nccc(Oc4ccc(NC(=O)C5(C(=O)Nc6ccc(F)cc6)CC5)cc4F)c3s2)nc1 [SITRAVATINIB] | > 20 | > 20 |
| COc1ccc2c(OC)c3ccoc3nc2c1OC [SKIMMIANINE] | > 20 | > 20 |
| CC1(C)CC(=O)c2c(C(F)(F)F)nn(-c3ccc(C(N)=O)c(N[C@H]4CC[C@H](OC(=O)CN)CC4)c3)c2C1 [SNX 5422] | > 20 | > 20 |
| O=C(O)c1cccc(-c2cccc(NCCNC[C@H](O)c3cccc(Cl)c3)c2)c1 [SOLABEGRON] | > 20 | > 20 |

Reference: ChEMBL document CHEMBL4651402, “Screening of ~5500 FDA-approved drugs and clinical candidates for anti-SARS-CoV-2 activity” (2021)
